Test results: patent US12491180B2, “Application of compound in treating pneumonia” (SHENZHEN OPTIMUM BIOLOGICAL TECHNOLOGY CO., LTD., priority 2019, dated 2025)
≈ marks a conversion by molar mass, not a printed value.

How the values were obtained:
Assay in all cases: MIC, solid dilution method
[1] = test system: Enterobacter aerogenes 8193; type: cell-based; conditions: Klebsiella aerogenes; E. ae 8193, CRE clinical isolate; MHA agar, 37° C., 16-20 hours; read-out: MIC
Method: CRE Enterobacter aerogenes 8193, a total of 1 strain;
(§1) The above-mentioned glycerol-preserved strains were taken out from the −80° C. refrigerator, streaked and inoculated on MHA plates, labeled, and cultured overnight in a 37° C. incubator.
(§2) The inoculum was prepared directly from bacterial suspension, and several recovered colonies were picked and directly prepared into a bacterial suspension with a turbidity of No. 0.5 McFarland units in normal saline, and a 10-fold dilution was made during inoculation.
(§3) 6 bottles of MHA culture medium 500 mL/bottle were prepared, and the pH was adjusted to 7.2-7.4, sterilized at 121° C. for 15 min, and the medium was placed in a 55° C. water bath to keep warm.
(§4) Sterile blank petri dishes were taken, and marked with each FL drug/concentration according to 2-fold dilution, and 10 concentrations of each drug starting from 8 μg/mL were tested.
(§5) […]; 20 mL was aspirated and added to a petri dish consistent with the mark, and then 20 mL of MHA culture medium was added to the rest of the drug-containing culture medium, mixed evenly, that is, the 2-fold diluted drug-containing culture medium; 20 mL was aspirated and added to the petri dish consistent with the mark, and then diluted to the 10th concentration and the […] respectively by repeating the above-mentioned steps, and then poured into the petri dish.
(§6) 4 bacterial control petri dishes without drug were prepared at the same time as a control.
(§7) The positioning needle and the inoculation needle were installed according to the order of placement of the colony on the inoculation plate. After inoculation, a bacterial solution circle was formed on the petri dish. After the bacterial solution was absorbed by the agar, the petri dish was placed in an incubator at 37° C. for overnight incubation (16-20 hours), and then taken out.
(§8) The minimum inhibitory concentrations of the compounds against the CRE and CSE strains were determined by the solid dilution method, and the results are shown in Tables 3 and 4.

E. ae 14186 = type: cell-based, Enterobacter aerogenes; conditions: Klebsiella aerogenes, 14186
Method: as §1, §2, §3, §4, §5, §6, §7, §8

E. coli 11256 = type: cell-based; conditions: Escherichia coli; E. coli 11256; MHA agar, 37° C., 16-20 hours; read-out: MIC
Method: as §1, §2, §3, §4, §5, §6, §7, §8

Escherichia coli 11119 = type: cell-based; conditions: 11119
Method: as §1, §2, §3, §4, §5, §6, §7, §8

Escherichia coli 13897 = type: cell-based; conditions: E. coli 13897, CRE clinical isolate, MHA agar, 37° C., 16-20 hours, read-out: MIC
Method: as §1, §2, §3, §4, §5, §6, §7, §8

Escherichia coli 14828 = type: cell-based; conditions: 14828
Method: as §1, §2, §3, §4, §5, §6, §7, §8

Klebsiella oxytoca 12391 = type: cell-based; conditions: K. ox 12391, CRE clinical isolate, MHA agar, 37° C., 16-20 hours, read-out: MIC
Method: as §1, §2, §3, §4, §5, §6, §7, §8

Klebsiella oxytoca 14151 = type: cell-based; conditions: 14151
Method: as §1, §2, §3, §4, §5, §6, §7, §8

Klebsiella oxytoca 14153 = type: cell-based; conditions: 14153
Method: as §1, §2, §3, §4, §5, §6, §7, §8

Klebsiella oxytoca 6777 = type: cell-based; conditions: 6777
Method: as §1, §2, §3, §4, §5, §6, §7, §8

[2] = test system: Escherichia coli ATCC25922; type: cell-based; conditions: E. coli ATCC25922, standard strain, MHA agar, 37° C., 16-20 hours, read-out: MIC
Method: (§9) (1) Standard strains: Escherichia coli BAA-2452, Escherichia coli ATCC25922, Klebsiella pneumoniae BAA-1705; all purchased from ATCC.
as §1, §2, §3, §4, §5, §6, §7, §8

[3] = test system: Escherichia coli BAA-2452; type: cell-based; conditions: BAA2452, E. coli BAA-2452, standard strain, MHA agar, 37° C., 16-20 hours, read-out: MIC
Method: as §9, §1, §2, §3, §4, §5, §6, §7, §8

[4] = test system: Klebsiella pneumoniae BAA-1705; type: cell-based; conditions: BAA1705
Method: as §9, §1, §2, §3, §4, §5, §6, §7, §8

[5] = test system: Klebsiella pneumoniae 11544; type: cell-based; conditions: 11544
Method: (§10) (2) Clinical isolated strains: CRE Klebsiella pneumoniae 5846, 11544, 12559, 13249 and CSE Klebsiella pneumoniae 8733, a total of 5 strains;
as §1, §2, §3, §4, §5, §6, §7, §8

[6] = test system: Klebsiella pneumoniae 12559; type: cell-based; conditions: K.p 12559, CRE clinical isolate, MHA agar, 37° C., 16-20 hours, read-out: MIC
Method: as §10, §1, §2, §3, §4, §5, §6, §7, §8

[7] = test system: Klebsiella pneumoniae 13249; type: cell-based; conditions: 13249
Method: as §10, §1, §2, §3, §4, §5, §6, §7, §8

[8] = test system: Klebsiella pneumoniae 5846; type: cell-based; conditions: 5846
Method: as §10, §1, §2, §3, §4, §5, §6, §7, §8

[9] = test system: Klebsiella pneumoniae 8733; type: cell-based; conditions: K.p 8733, CSE clinical isolate, MHA agar, 37° C., 16-20 hours, read-out: MIC
Method: as §10, §1, §2, §3, §4, §5, §6, §7, §8

[10] = test system: Citrobacter freundii 7646; type: cell-based; conditions: C.f 7646, CSE clinical isolate, MHA agar, 37° C., 16-20 hours, read-out: MIC
Method: (§11) CRE Citrobacter freundii 9434, 9484 and CSE Citrobacter freundii 7646, a total of 3 strains;
as §1, §2, §3, §4, §5, §6, §7, §8

[11] = test system: Citrobacter freundii 9434; type: cell-based; conditions: 9434
Method: as §11, §1, §2, §3, §4, §5, §6, §7, §8

[12] = test system: Citrobacter freundii 9484; type: cell-based; conditions: C.f 9484, CRE clinical isolate, MHA agar, 37° C., 16-20 hours, read-out: MIC
Method: as §11, §1, §2, §3, §4, §5, §6, §7, §8

[13] = test system: Acinetobacter baumannii 6383; type: cell-based; conditions: 6383
Method: (§12) CRE Acinetobacter baumannii 8476, 6383, a total of 2 strains; CRE Serratia marcescens 14541, a total of 1 strain; all collected in the Department of Infectious Diseases, West China Hospital, Chengdu, Sichuan Province, and kept in our laboratory.
as §1, §2, §3, §4, §5, §6, §7, §8

[14] = test system: Acinetobacter baumannii 8476; type: cell-based; conditions: A.B 8476, CRE clinical isolate, MHA agar, 37° C., 16-20 hours, read-out: MIC
Method: as §12, §1, §2, §3, §4, §5, §6, §7, §8

[15] = test system: Serratia marcescens 14541; type: cell-based; conditions: 14541
Method: as §12, §1, §2, §3, §4, §5, §6, §7, §8

C[C@H]1[C@H](NC(=O)/C(=N\OC(C)(C)C(=O)O)c2csc(N)n2)C(=O)N1S(=O)(=O)O [Aztreonam, aztreonam, reference compound]
MIC [1]: 32 µg/mL (≈ 73.5 µM)
MIC (E. ae 14186): > 128 µg/mL
MIC (E. coli 11256): < 0.25 µg/mL
MIC (Escherichia coli 11119): > 128 µg/mL
MIC (Escherichia coli 13897): 64 µg/mL (≈ 147 µM)
MIC (Escherichia coli 14828): > 128 µg/mL
MIC (Klebsiella oxytoca 12391): 32 µg/mL (≈ 73.5 µM)
MIC (Klebsiella oxytoca 14151): > 128 µg/mL
MIC (Klebsiella oxytoca 14153): > 128 µg/mL
MIC (Klebsiella oxytoca 6777): 128 µg/mL (≈ 294 µM)
MIC [2]: < 0.25 µg/mL
MIC [3]: 8 µg/mL (≈ 18.4 µM)
MIC [4]: > 128 µg/mL
MIC [5]: > 128 µg/mL
MIC [6]: 4 µg/mL (≈ 9.19 µM)
MIC [7]: > 128 µg/mL
MIC [8]: 128 µg/mL (≈ 294 µM)
MIC [9]: 8 µg/mL (≈ 18.4 µM)
MIC [10]: 16 µg/mL (≈ 36.7 µM)
MIC [11]: > 128 µg/mL
MIC [12]: 1 µg/mL (≈ 2.3 µM)
MIC [13]: 128 µg/mL (≈ 294 µM)
MIC [14]: 64 µg/mL (≈ 147 µM)
MIC [15]: > 128 µg/mL
